In US10994015B2, “EGFR proteolysis targeting chimeric molecules and associated methods of use” (Arvinas Operations, Inc., priority 2016, dated 2021):

Experiments:
[1] = biological target: EGFR-wt (MDA-MB-231 or MCF7 or A549 or OVCAR8) (Homo sapiens (Human), UniProt P00533); assay: EGFR protein degradation assay (Western blot); type: cell-based; settings: 72 hours, 300 nM to 10 nM
In short: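 Cells carrying the relevant EGFR form were plated at 300,000 per well in 6-well plates and left overnight to attach. For harvest, cells were rinsed once in ice-cold PBS and lysed in 400 μl lysis buffer containing protease inhibitors. Lysates were cleared at 10 000 rpm for 10 minutes and their protein content measured by BCA. Then 10 μg per sample was separated by SDS/PAGE at 165V for 2 hours, and EGFR was detected by ECL on a Chemidoc.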

EGFR Exon 20 ASV (HeLa*) = EGFR Exon 20 ASV (HeLa*) (Homo sapiens (Human), UniProt P00533, DUP767-769); assay: EGFR protein degradation assay (Western blot); type: cell-based; settings: 72 hours, 300 nM to 10 nM
[2] = biological target: EGFR L858R/T790M/C797S triple mutant (H520*) (Homo sapiens (Human), UniProt P00533, C797S/L858R/T790M); assay: EGFR protein degradation assay (Western blot); type: cell-based; settings: 72 hours, 300 nM to 10 nM
In short: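 EGFR loss in the triple-mutant line measured by immunoblot: clarified lysates normalised by BCA, run on 4-12% Bis-Tris gels, blotted to PVDF, probed with HRP anti-rabbit secondary. Before lysis, cells were dosed from 1, 0.3, 0.1, 0.03 and 0.01 mM DMSO stocks (not final concentrations) after overnight culture at 37° C.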

[3] = biological target: EGFR L858R/T790M double mutant (H1975) (Homo sapiens (Human), UniProt P00533, L858R/T790M); assay: EGFR protein degradation assay (Western blot); type: cell-based; settings: 72 hours, 300 nM to 10 nM
In short: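 Cells carrying the relevant EGFR form were plated at 300,000 cells per well in 6-well plates and left to attach overnight. After washing in ice-cold PBS, cells were lysed in 400 μl lysis buffer with protease inhibitors, scraped, and clarified at 10 000 rpm for 10 minutes. EGFR levels were then assessed by Western blot with tubulin as loading control.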

EGFR L858R/T790M = EGFR L858R/T790M (Homo sapiens (Human), UniProt P00533, L858R/T790M); assay: TR-FRET assay for ERBB kinases; type: biochemical; settings: geometric mean if measured more than once
In short: (§1)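 Kinase pre-incubated 10 min with compound in pH 7.5 HEPES buffer with MgCl2 and DTT, then reacted 10 min at room temperature with fluorescein-poly-GluTyr and ATP (substrate mix at 3 mM ATP, 30 uM peptide). EDTA-quenched; Tb-pY20 antibody TR-FRET read at 520/490 nm.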

EGFR WT = EGFR WT (Homo sapiens (Human), UniProt P00533); assay: TR-FRET assay for ERBB kinases; type: biochemical; settings: geometric mean if measured more than once
In short: as §1

EGFR L858R/T790M/C797S = EGFR L858R/T790M/C797S (Homo sapiens (Human), UniProt P00533, C797S/L858R/T790M); assay: TR-FRET assay for ERBB kinases; type: biochemical; settings: geometric mean if measured more than once
In short: as §1

EGFR Exon20NPG = EGFR Exon20NPG (Homo sapiens (Human), UniProt P00533, INS770NPG); assay: TR-FRET assay for ERBB kinases; type: biochemical; settings: geometric mean if measured more than once
In short: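 Compounds pre-incubated 10 min with kinase in HEPES pH 7.5 buffer (MgCl2, DTT, Pluronic), then reaction started with substrate mix (3 mM ATP, 30 µM fluorescein-poly-GluTyr, stock levels) for 10 min at room temperature. EDTA-quenched, detected by Tb-pY20 antibody TR-FRET (520/490 nm emission).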

Chain of EGFR L858R/T790M/C797S triple mutant (H520*) (P00533 25-1210 T790M/C797S/L858R): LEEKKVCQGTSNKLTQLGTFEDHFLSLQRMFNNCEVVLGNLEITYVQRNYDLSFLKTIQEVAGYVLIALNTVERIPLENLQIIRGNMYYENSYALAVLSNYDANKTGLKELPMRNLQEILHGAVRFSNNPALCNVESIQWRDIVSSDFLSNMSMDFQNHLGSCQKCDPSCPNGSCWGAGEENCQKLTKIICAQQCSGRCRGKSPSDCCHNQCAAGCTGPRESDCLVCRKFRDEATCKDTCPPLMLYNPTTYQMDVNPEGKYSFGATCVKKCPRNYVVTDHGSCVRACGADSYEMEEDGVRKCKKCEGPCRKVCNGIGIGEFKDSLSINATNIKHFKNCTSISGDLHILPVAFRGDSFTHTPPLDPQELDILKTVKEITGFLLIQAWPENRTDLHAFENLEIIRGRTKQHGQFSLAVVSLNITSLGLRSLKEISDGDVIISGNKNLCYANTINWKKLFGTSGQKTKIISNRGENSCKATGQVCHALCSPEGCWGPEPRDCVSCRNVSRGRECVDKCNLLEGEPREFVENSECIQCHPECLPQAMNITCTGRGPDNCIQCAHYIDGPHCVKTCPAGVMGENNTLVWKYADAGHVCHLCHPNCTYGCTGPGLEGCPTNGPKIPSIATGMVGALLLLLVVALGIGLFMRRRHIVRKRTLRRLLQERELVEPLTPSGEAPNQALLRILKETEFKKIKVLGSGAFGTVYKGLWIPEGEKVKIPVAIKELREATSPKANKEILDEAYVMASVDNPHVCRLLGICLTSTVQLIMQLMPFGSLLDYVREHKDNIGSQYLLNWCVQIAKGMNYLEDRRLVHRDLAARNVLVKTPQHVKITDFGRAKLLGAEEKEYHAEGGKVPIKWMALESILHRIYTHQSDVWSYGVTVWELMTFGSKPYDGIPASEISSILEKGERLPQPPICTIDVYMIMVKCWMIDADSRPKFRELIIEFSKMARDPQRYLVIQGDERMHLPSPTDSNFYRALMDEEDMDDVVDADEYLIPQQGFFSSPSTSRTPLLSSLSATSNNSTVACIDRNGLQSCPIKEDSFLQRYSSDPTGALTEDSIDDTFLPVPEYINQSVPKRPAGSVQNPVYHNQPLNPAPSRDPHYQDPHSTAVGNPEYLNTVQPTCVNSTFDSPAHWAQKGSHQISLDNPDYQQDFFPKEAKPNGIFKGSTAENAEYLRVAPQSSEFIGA
Chain of EGFR L858R/T790M/C797S (P00533 25-1210 T790M/C797S/L858R): as above
Chain of EGFR WT (P00533 25-1210): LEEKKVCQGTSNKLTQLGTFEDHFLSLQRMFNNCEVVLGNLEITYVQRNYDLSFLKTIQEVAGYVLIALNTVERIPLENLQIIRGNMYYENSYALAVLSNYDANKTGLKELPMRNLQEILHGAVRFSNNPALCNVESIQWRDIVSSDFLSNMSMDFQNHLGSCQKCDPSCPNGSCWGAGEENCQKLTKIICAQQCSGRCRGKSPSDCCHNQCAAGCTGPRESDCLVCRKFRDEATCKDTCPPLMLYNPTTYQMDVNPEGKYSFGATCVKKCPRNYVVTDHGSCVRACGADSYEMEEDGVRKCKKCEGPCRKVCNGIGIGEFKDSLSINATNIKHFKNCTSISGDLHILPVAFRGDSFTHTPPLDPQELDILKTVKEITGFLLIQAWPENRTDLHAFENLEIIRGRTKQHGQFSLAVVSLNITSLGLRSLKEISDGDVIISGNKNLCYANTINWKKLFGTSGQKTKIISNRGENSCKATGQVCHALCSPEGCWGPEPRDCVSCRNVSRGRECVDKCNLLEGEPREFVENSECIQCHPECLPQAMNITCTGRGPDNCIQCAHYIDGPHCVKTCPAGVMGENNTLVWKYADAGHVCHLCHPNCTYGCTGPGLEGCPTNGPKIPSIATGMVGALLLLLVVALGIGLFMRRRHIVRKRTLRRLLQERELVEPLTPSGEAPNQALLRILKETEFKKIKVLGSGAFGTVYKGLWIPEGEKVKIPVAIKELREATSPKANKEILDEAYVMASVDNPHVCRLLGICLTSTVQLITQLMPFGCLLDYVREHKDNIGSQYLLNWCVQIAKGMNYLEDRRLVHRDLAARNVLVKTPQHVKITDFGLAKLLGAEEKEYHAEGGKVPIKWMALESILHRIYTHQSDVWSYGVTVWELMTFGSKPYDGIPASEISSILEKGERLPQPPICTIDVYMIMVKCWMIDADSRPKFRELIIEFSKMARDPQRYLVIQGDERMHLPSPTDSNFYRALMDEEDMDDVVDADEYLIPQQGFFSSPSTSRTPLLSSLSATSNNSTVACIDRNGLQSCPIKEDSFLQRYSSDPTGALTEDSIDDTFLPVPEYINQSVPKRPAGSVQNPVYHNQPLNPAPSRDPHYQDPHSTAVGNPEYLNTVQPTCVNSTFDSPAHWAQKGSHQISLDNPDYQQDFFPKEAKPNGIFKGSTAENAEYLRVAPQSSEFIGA
Chain of EGFR-wt (MDA-MB-231 or MCF7 or A549 or OVCAR8) (P00533 25-1210): as above

SMILES: Cc1ncsc1-c1ccc(CNC(=O)[C@@H]2C[C@@H](O)CN2C(=O)[C@@H](NC(=O)COCCOCCOCCOc2ccc(-c3cc4c(NCc5ccccc5Cl)ncnc4[nH]3)cc2)C(C)(C)C)cc1 [Example 14, (2S,4R)-1-((S)-2-(tert-butyl)-14-(4-(4-((2-chlorobenzyl)amino)-7H-pyrrolo[2,3-d]pyrimidin-6-yl)phenoxy)-4-oxo-6,9,12-trioxa-3-azatetradecanoyl)-4-hydroxy-N-(4-(4-methylthiazol-5-yl)benzyl)pyrrolidine-2-carboxamide]
- EGFR protein remaining, EGFR-wt [1]: C (>80% EGFR protein remaining after 72 hours of incubation with the test compound at a concentration of 300 nM)
- EGFR protein remaining, EGFR Exon 20 ASV (EGFR Exon 20 ASV (HeLa*)): C (>80% EGFR protein remaining after 72 hours of incubation with the test compound at a concentration of 300 nM)

SMILES: COc1cc2c(Oc3ccc(N(C(=O)C4(C(N)=O)CC4)c4ccc(F)cc4)cc3F)ccnc2cc1OCCCOCCCOCCC(=O)N[C@H](C(=O)N1C[C@@H](O)C[C@H]1C(=O)NCc1ccc(-c2scnc2C)cc1)C(C)(C)C [Example 351, N-(3-Fluoro-4-((7-(3-(3-(3-(((S)-1-((2S,4S)-4-hydroxy-2-((4-(4-methylthiazol-5-yl)benzyl)carbamoyl)-pyrrolidin-1-yl)-3,3-dimethyl-1-oxobutan-2-yl)amino)-3-oxopropoxy)propoxy)propoxy)-6-methoxyquinolin-4-yl)oxy)phenyl)-N-(4-fluorophenyl)cyclopropane-1,1-dicarboxamide]
- EGFR protein remaining, EGFR-wt [1]: C (>80% EGFR protein remaining after 72 hours of incubation with the test compound at a concentration of 300 nM)

SMILES: Cc1ncsc1-c1ccc(CNC(=O)[C@H]2C[C@H](O)CN2C(=O)[C@@H](NC(=O)COCCOCCOc2ccc(-c3ccc4ncnc(Nc5ccc(OCc6cccc(F)c6)c(Cl)c5)c4c3)cc2)C(C)(C)C)cc1 [Example 98, (2R,4S)-1-((S)-2-(2-(2-(2-(4-(4-((3-Chloro-4-((3-fluorobenzyl)oxy)phenyl)amino)quinazolin-6-yl)phenoxy)ethoxy)ethoxy)acetamido)-3,3-dimethylbutanoyl)-4-hydroxy-N-(4-(4-methylthiazol-5-yl)benzyl)pyrrolidine-2-carboxamide]
- EGFR protein remaining, EGFR-wt [1]: C (>80% EGFR protein remaining after 72 hours of incubation with the test compound at a concentration of 300 nM)

SMILES: Cc1ncsc1-c1ccc(CNC(=O)[C@@H]2C[C@@H](O)CN2C(=O)[C@@H](NC(=O)COCCOCCOCCOc2ccc(-c3ccc4ncnc(Nc5ccc(OCc6cccc(F)c6)c(Cl)c5)c4c3)cc2)C(C)(C)C)cc1 [Example 99, (2S,4R)-1-((S)-2-(tert-Butyl)-14-(4-(4-((3-chloro-4-((3-fluorobenzyl)oxy)phenyl)amino)quinazolin-6-yl)phenoxy)-4-oxo-6,9,12-trioxa-3-azatetradecanoyl)-4-hydroxy-N-(4-(4-methylthiazol-5-yl)benzyl)pyrrolidine-2-carboxamide]
- EGFR protein remaining, EGFR-wt [1]: A (≤50% EGFR protein remaining after 72 hours of incubation with the test compound at a concentration between 300 nM and 10 nM)

SMILES: Cc1ncsc1-c1ccc(CNC(=O)[C@@H]2C[C@H](O)CN2C(=O)[C@@H](NC(=O)COCCOCCOCCOc2ccc(-c3ccc4ncnc(Nc5ccc(OCc6cccc(F)c6)c(Cl)c5)c4c3)cc2)C(C)(C)C)cc1 [Example 100, (2S,4S)-1-((S)-2-(tert-Butyl)-14-(4-(4-((3-chloro-4-((3-fluorobenzyl)oxy)phenyl)amino)quinazolin-6-yl)phenoxy)-4-oxo-6,9,12-trioxa-3-azatetradecanoyl)-4-hydroxy-N-(4-(4-methylthiazol-5-yl)benzyl)pyrrolidine-2-carboxamide]
- EGFR protein remaining, EGFR-wt [1]: C (>80% EGFR protein remaining after 72 hours of incubation with the test compound at a concentration of 300 nM)

SMILES: Cc1ncsc1-c1ccc(CNC(=O)[C@@H]2C[C@@H](O)CN2C(=O)[C@@H](NC(=O)COCCOCCOCCOCCOCc2ccc(-c3ccc4ncnc(Nc5ccc(OCc6cccc(F)c6)c(Cl)c5)c4c3)o2)C(C)(C)C)cc1 [Example 320, (2S,4R)-1-((S)-18-(tert-butyl)-1-(5-(4-((3-chloro-4-((3-fluorobenzyl)oxy)phenyl)amino)quinazolin-6-yl)furan-2-yl)-16-oxo-2,5,8,11,14-pentaoxa-17-azanonadecan-19-oyl)-4-hydroxy-N-(4-(4-methylthiazol-5-yl)benzyl)pyrrolidine-2-carboxamide]
- EGFR protein remaining, EGFR-wt [1]: A (≤50% EGFR protein remaining after 72 hours of incubation with the test compound at a concentration between 300 nM and 10 nM)

SMILES: Cc1ncsc1-c1ccc(CNC(=O)[C@@H]2C[C@@H](O)CN2C(=O)[C@H](C(C)C)N2Cc3ccccc3C2=O)c(OCCOCCOCCOCC#Cc2cccc3c2C(=O)N([C@@H](C(=O)Nc2nccs2)c2cc(F)ccc2O)C3)c1 [compound 258]
- EGFR protein remaining, EGFR L858R/T790M/C797S triple mutant [2]: C (>80% EGFR protein remaining after 72 hours of incubation with the test compound at a concentration of 300 nM)
- EGFR protein remaining, EGFR L858R/T790M double mutant [3]: C (>80% EGFR protein remaining after 72 hours of incubation with the test compound at a concentration of 300 nM)
- IC50 (EGFR L858R/T790M): 5.9 µM
- IC50 (EGFR WT): 1.7 µM
- IC50 (EGFR L858R/T790M/C797S): 4 µM
- IC50 (EGFR Exon20NPG): 4.9 µM

SMILES: Cc1ncsc1-c1ccc([C@H](C)NC(=O)[C@H]2C[C@H](O)CN2C(=O)[C@@H](NC(=O)COCCOCCOCCOCCOCCOCC#Cc2cccc3c2C(=O)N([C@@H](C(=O)Nc2nccs2)c2cc(F)ccc2O)C3)C(C)(C)C)cc1 [compound 275]
- EGFR protein remaining, EGFR L858R/T790M/C797S triple mutant [2]: B (≤80% and >50% EGFR protein remaining after 72 hours of incubation with the test compound at a concentration between 300 nM and 10 nM)
- EGFR protein remaining, EGFR L858R/T790M double mutant [3]: C (>80% EGFR protein remaining after 72 hours of incubation with the test compound at a concentration of 300 nM)
- EGFR protein remaining, EGFR-wt [1]: C (>80% EGFR protein remaining after 72 hours of incubation with the test compound at a concentration of 300 nM)
- IC50 (EGFR L858R/T790M): 0.88 µM
- IC50 (EGFR WT): 0.66 µM
- IC50 (EGFR L858R/T790M/C797S): 0.069 µM
- IC50 (EGFR Exon20NPG): 9.1 µM

SMILES: Cc1ncsc1-c1ccc([C@H](C)NC(=O)[C@H]2C[C@H](O)CN2C(=O)[C@@H](NC(=O)COCCCC#Cc2cccc3c2C(=O)N(C(C(=O)Nc2nccs2)c2cc(F)ccc2O)C3)C(C)(C)C)cc1 (stereo partly shown) [compound 92]
- EGFR protein remaining, EGFR L858R/T790M/C797S triple mutant [2]: C (>80% EGFR protein remaining after 72 hours of incubation with the test compound at a concentration of 300 nM)
- EGFR protein remaining, EGFR L858R/T790M double mutant [3]: C (>80% EGFR protein remaining after 72 hours of incubation with the test compound at a concentration of 300 nM)
- IC50 (EGFR L858R/T790M): 6.2 µM
- IC50 (EGFR WT): 9.8 µM
- IC50 (EGFR L858R/T790M/C797S): 1.1 µM
- IC50 (EGFR Exon20NPG): 3.1 µM

SMILES: Cc1ncsc1-c1ccc(CNC(=O)[C@@H]2C[C@@H](O)CN2C(=O)[C@@H](NC(=O)CO[C@H]2C[C@H](Oc3ccc(N4CCN(CCOCc5nc6cnc(Nc7ccnc(-c8cnn(S(=O)(=O)C9CC9)c8)n7)cc6n5C(C)C)CC4)cc3)C2)C(C)(C)C)cc1 [compound 304]
- EGFR protein remaining, EGFR L858R/T790M/C797S triple mutant [2]: A (≤50% EGFR protein remaining after 72 hours of incubation with the test compound at a concentration between 300 nM and 10 nM)
- EGFR protein remaining, EGFR-wt [1]: C (>80% EGFR protein remaining after 72 hours of incubation with the test compound at a concentration of 300 nM)
- IC50 (EGFR L858R/T790M): 0.092 µM
- IC50 (EGFR WT): > 30 µM
- IC50 (EGFR L858R/T790M/C797S): 0.017 µM

SMILES: O=C1CCC(N2C(=O)c3cccc(NCCOCCOCCOCCOCC#Cc4cccc5c4C(=O)N([C@@H](C(=O)Nc4nccs4)c4cc(F)ccc4O)C5)c3C2=O)C(=O)N1 (stereo partly shown) [compound 266]
- EGFR protein remaining, EGFR L858R/T790M/C797S triple mutant [2]: C (>80% EGFR protein remaining after 72 hours of incubation with the test compound at a concentration of 300 nM)
- EGFR protein remaining, EGFR L858R/T790M double mutant [3]: C (>80% EGFR protein remaining after 72 hours of incubation with the test compound at a concentration of 300 nM)
- IC50 (EGFR L858R/T790M): > 30 µM
- IC50 (EGFR WT): 10 µM
- IC50 (EGFR L858R/T790M/C797S): 2.6 µM
- IC50 (EGFR Exon20NPG): > 30 µM
